{"source": "ChEMBL document CHEMBL5584236", "about": "“Development of novel bisphenol derivatives with a membrane-targeting mechanism as potent gram-positive antibacterial agents” (Eur J Med Chem, 2024)", "key": {"Staphylococcus aureus [1]": {"tested_on": "Staphylococcus aureus", "assay": "Antibacterial activity against methicillin-resistant Staphylococcus aureus N315 assessed as reduction in microbial growth incubated for 22 to 24 hrs by CLSI based broth microdilution method", "type": "functional", "conditions": "time 22-24 hrs"}, "Staphylococcus aureus [2]": {"tested_on": "Staphylococcus aureus", "assay": "Antibacterial activity against Staphylococcus aureus ATCC25923 assessed as reduction in microbial growth incubated for 22 to 24 hrs by CLSI based broth microdilution method", "type": "functional", "conditions": "time 22-24 hrs"}, "Staphylococcus aureus [3]": {"tested_on": "Staphylococcus aureus", "assay": "Bactericidal activity against methicillin-resistant Staphylococcus aureus NCTC10442 assessed as cell killing at 4 to 8 times of MIC measured up to 24 hrs by time kill assay", "type": "functional, organism-based"}, "Staphylococcus aureus [4]": {"tested_on": "Staphylococcus aureus", "assay": "Bactericidal activity against Staphylococcus aureus ATCC29213 assessed as log reduction in bacterial load at 8 times of MIC measured with in 0.5 hrs by time kill assay", "type": "functional"}, "Staphylococcus aureus [5]": {"tested_on": "Staphylococcus aureus", "assay": "Antibacterial activity against methicillin-resistant Staphylococcus aureus N315 assessed as reduction in bacterial growth incubated for 22 to 24 hrs in presence of ZnSO4.7H2O by CLSI based broth microdilution method", "type": "functional", "conditions": "time 22-24 hrs"}, "Staphylococcus aureus [6]": {"tested_on": "Staphylococcus aureus", "assay": "Antibacterial activity against methicillin-resistant Staphylococcus aureus NCTC10442 assessed as reduction in bacterial growth incubated for 22 to 24 hrs in presence of KCl by CLSI based broth microdilution method", "type": "functional", "conditions": "time 22-24 hrs"}, "Staphylococcus aureus [7]": {"tested_on": "Staphylococcus aureus", "assay": "Antibacterial activity against methicillin-resistant Staphylococcus aureus NCTC10442 assessed as reduction in bacterial growth incubated for 22 to 24 hrs in presence of MgCl2 by CLSI based broth microdilution method", "type": "functional", "conditions": "time 22-24 hrs"}, "Klebsiella pneumoniae [8]": {"tested_on": "Klebsiella pneumoniae", "assay": "Synergistic […] activity against Klebsiella pneumoniae ATCC10031 assessed as fractional inhibitory concentration index incubated for 22 to 24 hrs in presence of tobramycin by CLSI based broth microdilution method", "type": "functional", "conditions": "time 22-24 hrs"}, "Klebsiella pneumoniae [9]": {"tested_on": "Klebsiella pneumoniae", "assay": "Synergistic […] activity against Klebsiella pneumoniae ATCC10031 assessed as fractional inhibitory concentration index incubated for 22 to 24 hrs in presence of meropenem by CLSI based broth microdilution method", "type": "functional", "conditions": "time 22-24 hrs"}, "Acinetobacter baumannii": {"tested_on": "Acinetobacter baumannii", "assay": "Synergistic […] activity against Acinetobacter baumannii ATCC17978 assessed as fractional inhibitory concentration index incubated for 22 to 24 hrs in presence of amikacin by CLSI based broth microdilution method", "type": "functional", "conditions": "time 22-24 hrs"}, "[10]": {"assay": "Cytotoxicity against HEK293 cells assessed as viable cells at 6.25 ug/ml incubated for 24 hrs by CCK-8 assay relative to control", "type": "toxicity, cell-based", "conditions": "human, at 6.25 µg/mL, read-out: Activity"}, "[11]": {"assay": "Cytotoxicity against HEK293 cells assessed as viable cells at 12.5 ug/ml incubated for 24 hrs by CCK-8 assay relative to control", "type": "toxicity, cell-based", "conditions": "human, at 12.5 µg/mL, read-out: Activity"}}, "note": "Active and inactive are the calls of the source. The calls are words filed in the database; no cut-off is given here."}
{"smiles": "COC(=O)[C@H](CCCNC(=N)N)NC(=O)[C@H](CCCNC(=N)N)NC(=O)COc1ccc(S(=O)(=O)c2ccc(OC/C=C(/C)CCC=C(C)C)cc2)cc1", "values": [{"measurement": "MIC", "setting": "Staphylococcus aureus [1]", "result": 0.78, "unit": "µg/mL"}, {"measurement": "MIC", "setting": "Staphylococcus aureus [2]", "result": 3.12, "unit": "µg/mL"}, {"measurement": "Activity", "setting": "Staphylococcus aureus [3]", "result": "Active"}, {"measurement": "log(activity)", "setting": "Staphylococcus aureus [4]", "result": 3}, {"measurement": "MIC", "setting": "Staphylococcus aureus [5]", "result": 1.56, "unit": "µg/mL"}, {"measurement": "MIC", "setting": "Staphylococcus aureus [6]", "result": 1.56, "unit": "µg/mL"}, {"measurement": "MIC", "setting": "Staphylococcus aureus [7]", "result": 1.56, "unit": "µg/mL"}, {"measurement": "fractional inhibitory concentration index (FICI)", "setting": "Klebsiella pneumoniae [8]", "result": 0.375}, {"measurement": "fractional inhibitory concentration index (FICI)", "setting": "Klebsiella pneumoniae [9]", "result": 0.56}, {"measurement": "fractional inhibitory concentration index (FICI)", "setting": "Acinetobacter baumannii", "result": 0.28}, {"measurement": "viability at 24 h, 6.25 ug/ml", "setting": "[10]", "result": 96.1, "unit": "%"}, {"measurement": "viability at 24 h, 12.5 ug/ml", "setting": "[11]", "result": 94.2, "unit": "%"}]}
